{
  "source": "patent US6709818B1",
  "about": "“Methods of diagnosing and treating hepatic cell proliferative disorders” (The Johns Hopkins University School of Medicine, priority 1999, dated 2004)",
  "key": {"GSTP1 promoter alleles": {"tested_on": "GSTP1 promoter alleles", "test": "Southern blot analysis of GSTP1 \"CpG island\" DNA hypermethylation in Hep3B cells treated with 5-aza-dC", "format": "cell-based, human", "settings": "Hep3B HCC cells treated in vitro, 72 hours", "description": "DNA isolated from Hep3B cells before and after exposure to 5-aza-dC in vitro was assessed for GSTP1 “CpG island” DNA hypermethylation using Southern blot analysis. Purified DNAs were digested first with HindIII and EcoRI and then extensively with the ^5-mC-sensitive restriction endonuclease BssHII. Digested DNAs were then electrophoresed on agarose gels, transferred to Zeta-Probe (DioRad) membranes, and then hybridized with ^32P-labeled GSTP1 cDNA DNA isolated from Hep3B HCC cells and from HCC and adjacent non-neoplastic tissues was also subjected to analysis for GSTP1 “CpG island” DNA hypermethylation using a ^5-mC-sensitive restriction endonuclease-polymerase chain reaction (PCR) strategy that permitted both detection of CpG dinucleotide methylation and simultaneous discrimination of maternal and paternal alleles in informative cases. […] To facilitate detection of the PCR amplification products, the downstream primer was end-labeled with [γ-^32P]ATP (Amersham) using T4 polynucleotide kinase (New England BioLabs). PCR was conducted by incubation at 95° C. for 1 min, 63° C. for 3 min, and 72° C. for 1.5 min, for 30 cycles followed by a final extension at 72° C. for 8 min. […]"}, "[1]": {"tested_on": "GSTP1 mRNA expression in Hep3B HCC cells", "test": "Northern blot analysis of GSTP1 mRNA expression by Hep3B cells treated with 5-aza-dC", "settings": "for GSTP1 mRNA expression (Northern blot): Hep3B HCC cells treated in vitro, 72 hours"}, "[2]": {"tested_on": "GSTP1 expression in Tsu-Prl PCA cells", "test": "GSTP1 expression in Tsu-Prl PCA cells treated with 5-aza-dC", "format": "cell-based, human", "settings": "Tsu-Prl PCA cells (unmethylated GSTP1 promoter alleles), treated as for Hep3B", "source_text": "Assessment of GSTP1 expression."}},
  "note": "“Also recorded” adds a separate entry of the source.",
  "data": [
    {"smiles": "Nc1ncn([C@H]2C[C@H](O)[C@@H](CO)O2)c(=O)n1", "note": "[5-aza-dC, 5-aza-deoxycytidine]", "values": [
      {"measurement": "GSTP1 \"CpG island\" / promoter allele methylation (Southern blot, BssHII digestion)", "setting": "GSTP1 promoter alleles", "value": "appearance of unmethylated GSTP1 promoter alleles"},
      {"measurement": "GSTP1 \"CpG island\" / promoter allele methylation (Southern blot, BssHII digestion)", "setting": "GSTP1 promoter alleles; listed as 5-aza-deoxycytidine", "value": "reversed GSTP1 “CpG island” hypermethylation"},
      {"measurement": "time at which GSTP1 mRNA expression began to appear", "setting": "[1]; Hep3B HCC cells exposed for as long as 72 hours", "value": "≤ 24", "unit": "h"},
      {"measurement": "GSTP1 mRNA expression (Northern blot)", "setting": "[1]", "value": "reactivation of GSTP1 mRNA expression; also recorded: appearance of detectable GSTP1 mRNA"},
      {"measurement": "GSTP1 mRNA expression (Northern blot)", "setting": "[1]; listed as 5-aza-deoxycytidine", "value": "restored GSTP1 expression"},
      {"measurement": "modulation of GSTP1 expression", "setting": "[2]", "value": "no modulation of GSTP1 expression was evident"}
    ]}
  ]
}
